Test results: ChEMBL document CHEMBL6134881, “From Natural Products to Small Molecules: Recent Advancements in Anti-MRSA Therapeutics” (ACS Med Chem Lett, 2025)
Values after ≈ are worked out from the molar mass of the structure shown.

Tested on: Staphylococcus aureus
Assay: Antibacterial activity against […] Staphylococcus aureus ATCC 29213 assessed as reduction in bacterial growth incubated for 16 to 18 hrs by CLSI protocol based Muller Hinton broth assay
Assay type: functional
Settings: time 16-18 hrs

| SMILES | MIC [µg/mL] |
| --- | --- |
| CC[C@H]1C[C@@H](OC(=O)CS[C@@H]2CC[C@@H](N)C[C@H]2O)[C@]2(C)[C@H](C)C[C@]3(CCC(=O)[C@H]32)[C@@H](C)[C@@H]1O | > 16 |
| C[C@@H]1CC[C@@]23CCC(=O)[C@H]2[C@]1(C)[C@H](OC(=O)CSc1ccncc1)CC(=O)[C@@H](O)[C@@H]3C | > 16 |
| CC[C@@]1(C)C[C@@H](OC(=O)CSc2ccncc2)[C@]2(C)[C@H](C)CC[C@]3(CCC(=O)[C@H]32)[C@@H](C)[C@@H]1O | 0.06 (≈ 0.127 µM) |
| C[C@@H]1[C@@H](O)[C@H](C)[C@]23CCC(=O)[C@H]2[C@@](C)([C@H](C)CC3)[C@@H]1OC(=O)CS[C@@H]1CC[C@@H](N)C[C@H]1O | > 32 |

Tested on: Staphylococcus aureus
Assay: Antibacterial activity against methicillin-resistant Staphylococcus aureus ATCC 43300 assessed as reduction in bacterial growth incubated for 18 hrs by mueller hinton broth dilution method
Assay type: functional
Settings: not given

| SMILES | MIC [µg/mL] |
| --- | --- |
| CC[N+](CC)=c1sc2c(s1)C(c1ccc(Cl)cc1)Oc1ccc(C)cc1-2.F[B-](F)(F)F (configuration not stated) | 3.9 |
| O=C(O)/C=C/c1ccc(-c2ccc(O)c(C34CC5CC(CC(C5)C3)C4)c2)cc1 [ADAROTENE] | 2 (≈ 5.34 µM) |
| CC[N+](CC)=c1sc2c(s1)C(c1ccc(F)cc1)Oc1ccc(C)cc1-2.F[B-](F)(F)F (configuration not stated) | 16.6 |
| CC[N+](CC)=c1sc2c(s1)C(c1ccc(Br)cc1)Oc1ccc(C)cc1-2.F[B-](F)(F)F (configuration not stated) | 1.95 |
| O=C(O)c1ccc2cc(-c3ccc(O)c(C45CC6CC(CC(C6)C4)C5)c3)ccc2c1 [O-DEMETHYLATED ADAPALENE] | 1 (≈ 2.51 µM) |
| OCc1ccc2cc(-c3ccc(O)c(C45CC6CC(CC(C6)C4)C5)c3)ccc2c1 | 2 (≈ 5.2 µM) |

Tested on: HepG2
Assay: Cytotoxicity against human HepG2 cells assessed as reduction in cell viability by measuring lethal concentration by SRB assay
Assay type: functional
Settings: read-out: LC50 (the source's name)

| SMILES | CC50 [µg/mL] |
| --- | --- |
| O=C(O)c1ccc2cc(-c3ccc(O)c(C45CC6CC(CC(C6)C4)C5)c3)ccc2c1 [O-DEMETHYLATED ADAPALENE] | 5 (≈ 12.5 µM) |
| OCc1ccc2cc(-c3ccc(O)c(C45CC6CC(CC(C6)C4)C5)c3)ccc2c1 | > 32 |

Tested on: Staphylococcus aureus
Assay: Antibacterial activity against methicillin-resistant Staphylococcus aureus ATCC 33591 assessed as inhibition of bacterial growth incubated for 24 hrs by Mueller-Hinton broth assay
Assay type: functional
Settings: not given

| SMILES | MIC [µg/mL] |
| --- | --- |
| C=CCc1ccc(O)c(-c2cc(CC=C)ccc2O)c1 [MAGNOLOL] | 20 (≈ 75.1 µM) |
| C=CCc1ccc(O)c(-c2ccc(O)c(CC=C)c2)c1 [HONOKIOL] | 10 (≈ 37.5 µM) |

Tested on: Staphylococcus aureus
Assay: Antibacterial activity against Staphylococcus aureus assessed as reduction in bacterial growth
Assay type: functional
Settings: not given

| MIC [µg/mL] | SMILES |
| --- | --- |
| 0.12 (≈ 0.319 µM) | Cn1cc(-c2ccc(Cn3cnc4c(N5CCNCC5)ncnc43)nc2)nn1 |
| 16.6 (≈ 54.3 µM) | Cn1cc(-c2ccc(Cn3cnc4c(N)ncnc43)cc2)nn1 |
| 0.25 (≈ 0.666 µM) | Cn1cc(-c2ccc(Cn3cnc4c(N5CCNCC5)ncnc43)cc2)nn1 |

Tested on: not listed separately
Assay: Solubility of compound
Assay type: physicochemical
Settings: not given

| solubility [µM] | SMILES |
| --- | --- |
| 114 (≈ 42.9 µg/mL) | Cn1cc(-c2ccc(Cn3cnc4c(N5CCNCC5)ncnc43)nc2)nn1 |
| 31 (≈ 11.6 µg/mL) | Cn1cc(-c2ccc(Cn3cnc4c(N5CCNCC5)ncnc43)cc2)nn1 |

Tested on: Staphylococcus aureus
Assay: Antibacterial activity against methicillin-resistant Staphylococcus aureus ATCC 33591
Assay type: functional
Settings: not given

| SMILES | MIC [µM] |
| --- | --- |
| CCC(c1ccc(O)cc1)C(CC)c1ccc(O)cc1 (configuration not stated) | 16 (≈ 4.33 µg/mL) |
| Oc1c(Cl)cc(Cl)cc1Sc1cc(Cl)cc(Cl)c1O [BITHIONOL] | 0.5 (≈ 0.178 µg/mL) |
| CNC(=O)c1cc(Oc2ccc(NC(=O)Nc3cccc(C(F)(F)F)c3)cc2)ccn1 | > 100 |
| O=C(O)c1c(Sc2ccccc2)c2cc(Cl)ccc2n1Cc1ccc(Cl)cc1 | 1 (≈ 0.428 µg/mL) |
| O=C(Nc1ccc2c(c1)OC(F)(F)O2)Nc1ccc(Cl)c(C(F)(F)F)c1 | 0.3 (≈ 0.118 µg/mL) |
| CNC(=O)c1cc(Oc2ccc(NC(=O)Nc3ccc(Cl)c(C(F)(F)F)c3)cc2)ccn1 [SORAFENIB] | 3 (≈ 1.39 µg/mL) |
| CNC(=O)c1cc(Oc2ccc(NC(=O)Nc3ccc(Cl)c(C)c3)cc2)ccn1 | > 100 |
| CNC(=O)c1cc(Oc2ccc(NC(=O)Nc3ccccc3)cc2)ccn1 | > 100 |

Tested on: Staphylococcus aureus
Assay: Antibacterial activity against methicllin-resistant Staphylococcus aureus
Assay type: functional
Settings: not given

| SMILES | MIC [µg/mL] |
| --- | --- |
| CCCCCn1c2ccccc2c2c(OCC(O)CCC=C(C)C)cccc21 (configuration not stated) | 6.25 (≈ 16.5 µM) |
| CCCn1c2ccccc2c2c(OCC(O)CCC=C(C)C)cccc21 (configuration not stated) | 50 (≈ 142 µM) |
| CCCCCCCCCn1c2ccccc2c2c(OCC(O)CCC=C(C)C)cccc21 (configuration not stated) | 6.25 (≈ 14.3 µM) |
| CC(C)=CCCC(O)COc1cccc2c1c1ccccc1n2C (configuration not stated) | > 50 |
| CC(C)=CCCC(O)COc1cccc2c1c1ccccc1n2CC=C(C)C (configuration not stated) | 3.13 (≈ 8.3 µM) |
| CCCCCCCn1c2ccccc2c2c(OCC(O)CCC=C(C)C)cccc21 (configuration not stated) | 12.5 (≈ 30.7 µM) |

Tested on: Staphylococcus aureus
Assay: Antibacterial activity against Staphylococcus aureus ATCC 25923 assessed as reduction in bacterial growth incubated for 24 hrs by broth micro-dilution method
Assay type: functional
Settings: not given

| SMILES | MIC [µg/mL] |
| --- | --- |
| C=C[C@]1(C)C[C@@H](OC(=O)CSC(C)(C)CNC(=O)[C@H](N)C(C)C)[C@]2(C)[C@H](C)CC[C@]3(CCC(=O)[C@H]32)[C@@H](C)[C@@H]1O [VALNEMULIN] | 0.06 (≈ 0.106 µM) |
| C=C[C@]1(C)C[C@@H](OC(=O)CSCCN(CC)CC)[C@]2(C)[C@H](C)CC[C@]3(CCC(=O)[C@H]32)[C@@H](C)[C@@H]1O [TIAMULIN] | 0.25 (≈ 0.506 µM) |
| C=C[C@]1(C)C[C@@H](OC(=O)CS[C@@H]2C[C@H]3CC[C@@H](C2)N3C)[C@]2(C)[C@H](C)CC[C@]3(CCC(=O)[C@H]32)[C@@H](C)[C@@H]1O [RETAPAMULIN] | 0.25 (≈ 0.483 µM) |
| C=C[C@]1(C)C[C@@H](OC(=O)CS[C@@H]2CC[C@@H](N)C[C@H]2O)[C@]2(C)[C@H](C)CC[C@]3(CCC(=O)[C@H]32)[C@@H](C)[C@@H]1O [LEFAMULIN] | 0.12 (≈ 0.236 µM) |
